In publication PMC5286460 (ACS Omega, 2017):
“Also recorded” adds a separate entry of the source.

What was measured:
[1] = UV–vis absorption and fluorescence spectroscopy; type: physicochemical; conditions: 10% DMSO; for λmax abs: 10-15 μM
[2] = Cell viability by Cell Titer-Blue assay; type: cell-based; conditions: human, Capan-1 cells
Capan-1 cells [3] = experiment: Subcellular colocalization, live cell imaging; type: cell-based, human; conditions: 0.5 μM, 1 h incubation
healthy CD-1 mice = experiment: In vivo biodistribution imaging in healthy mice; design: species or system mouse; conditions: for pancreas specificity / accumulation: systemic administration
[4] = test system: genetically modified PDAC mice; experiment: In vivo biodistribution and ex vivo pathology in PDAC tumor-bearing mice; design: species or system mouse; conditions: 100 nmol systemic, 1.5 h
[5] = test system: pancreas tissue derived from healthy and PDAC mice; experiment: Ex vivo staining of pancreas tissue from healthy and PDAC mice; conditions: PDAC mouse pancreas tissue slides
Capan-1 cells [6] = experiment: Cellular uptake in Capan-1 cells; type: cell-based, human; conditions: within 30 min of application
[7] = acidic solution pH 1.9, 12.5 mM HCl

Stokes shift ([1]; pH 7.4 phosphate buffer) [nm]	brightness ([1]; pH 7.4 phosphate buffer)	λmax em ([1]; pH 7.4 phosphate buffer) [nm]	φ (quantum yield) ([1]; pH 7.4 phosphate buffer) [%]	λmax abs ([1]; pH 7.4 phosphate buffer) [nm]	SMILES	pancreas specificity / accumulation (healthy CD-1 mice)	further results
					COC(=O)c1ccccc1-c1c2ccc(=N)cc-2oc2c1ccc1cccc(O)c12.Cl [Compound 3]		Stokes shift [1, 7]: 62 nm; brightness [1, 7]: 226; λmax em [1, 7]: 604 nm; φ (quantum yield) [1, 7]: 1.14%; λmax abs [1, 7]: 542 nm
38	2094	606	9.32	568	COC(=O)c1ccccc1-c1c2ccc(=[N+](C)C)cc-2oc2c1ccc1cccc(OC)c12.[Cl-] [Compound 6]		
					COC(=O)c1ccccc1-c1c2ccc(=O)cc-2oc2c1ccc1cccc(N(C)C)c12 [Compound 8]		λmax em ([1]; basic solution pH 12.1, 12.5 mM NaOH): 530 nm
184	25	760	0.18	576	COC(=O)c1ccccc1-c1c2ccc(=N)cc-2oc2c1ccc1cccc(N)c12.Cl [Compound 9]		
					COC(=O)c1ccccc1C1=c2cc3c4c(c2Oc2c1ccc1cccc(O)c21)CCC[N+]=4CCC3.[Cl-] [Compound 11]		Stokes shift [1, 7]: 39 nm; brightness [1, 7]: 2314; λmax em [1, 7]: 624 nm; φ (quantum yield) [1, 7]: 15.3%; λmax abs [1, 7]: 585 nm
40	2022	622	11.38	582	COC(=O)c1ccccc1C1=c2cc3c4c(c2Oc2c1ccc1cccc(OC)c21)CCC[N+]=4CCC3.[Cl-] [Compound 12]	improved pancreas specificity	IC50 at 24 h [2]: 17.8 µM; subcellular localization (Capan-1 cells [3]): extensive accumulation in the mitochondria; uptake in normal pancreas tissue as compared to MB (healthy CD-1 mice; 100 nmol systemic (MB 120 nmol)): 4 fold; fluorescence SBR in the pancreas vs surrounding organs (healthy CD-1 mice; 4 h time point): highest and most persistent fluorescence SBR in the pancreas; PDAC-specific fluorescence / accumulation [4]: Significantly more fluorescence; also recorded: significantly higher than that in the surrounding tissues; ex vivo staining pattern in cancerous tissue [5]: localized in the PDAC-associated ductal epithelial cells
139	85	740	0.66	601	COC(=O)c1ccccc1C1=c2cc3c4c(c2Oc2c1ccc1cccc(N)c21)CCC[N+]=4CCC3.[Cl-] [Compound 13]	diminished pancreas accumulation	IC50 at 24 h [2]: 26.1 µM; relative cellular uptake (Capan-1 cells [6]): greatest uptake; subcellular localization (Capan-1 cells [3]): extensive accumulation in the mitochondria
					CN(C)c1ccc2nc3ccc(=[N+](C)C)cc-3sc2c1 [MB, methylene blue, reference compound]	poor penetration into normal pancreas tissue; also recorded: diminished pancreas accumulation	
